Literature values as cited in patent publication EP0611214A2, “Acidic composition and process of using same” (MINNESOTA MINING AND MANUFACTURING COMPANY, priority 1993, dated 1994).

settings: in water, as reported in U.S. Pat. No. 5,080,822, column 4

SMILES	aqueous ambient temperature solubility in weight percent [weight percent]
CC(O)COc1ccccc1 (centres unmarked) [1-phenoxy-2-propanol]	1.1
OCCOc1ccccc1 [2-phenoxyethanol]	2.3
OCCc1ccccc1 [8-phenylethanol]	1.6
CC(=O)c1ccccc1 [acetophenone]	0.5
OCc1ccccc1 [benzyl alcohol]	4.4
